The values that follow come from publication PMC5446891, “Inhibition of α-Amylases by Condensed and Hydrolysable Tannins: Focus on Kinetics and Hypoglycemic Actions” (Enzyme Research, 2017).

Assay [1] deals with T1, porcine pancreatic α-amylase (Sus scrofa, UniProt P00690).
T1 construct: purchased Sigma-Aldrich Co. Type VI-B
T1 sequence (P00690 16-511): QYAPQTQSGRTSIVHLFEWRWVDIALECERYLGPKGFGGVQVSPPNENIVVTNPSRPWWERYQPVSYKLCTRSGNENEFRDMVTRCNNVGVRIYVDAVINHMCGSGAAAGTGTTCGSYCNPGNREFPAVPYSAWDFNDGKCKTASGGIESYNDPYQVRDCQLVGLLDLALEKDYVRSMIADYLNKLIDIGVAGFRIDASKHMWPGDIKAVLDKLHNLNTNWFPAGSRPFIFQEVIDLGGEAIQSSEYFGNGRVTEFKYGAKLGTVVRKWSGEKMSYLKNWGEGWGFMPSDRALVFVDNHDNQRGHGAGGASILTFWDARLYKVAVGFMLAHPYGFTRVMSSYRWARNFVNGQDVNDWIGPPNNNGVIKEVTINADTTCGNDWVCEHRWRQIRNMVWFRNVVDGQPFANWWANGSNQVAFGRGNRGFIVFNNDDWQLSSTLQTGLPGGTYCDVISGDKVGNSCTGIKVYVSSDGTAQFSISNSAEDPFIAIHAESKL
Set-up: method as in doi:10.1016/j.foodres.2013.12.004, PMID 8944767. To be noted: cited from earlier work.

In assay [2] the test system is intestinal starch absorption (in vivo α-amylase). Kind of assay: glycemic levels of rats after starch administration. Particulars: intragastric with starch 1 g/kg, 60 min; acarbose 50 mg/kg, tannins 100-500 mg/kg. Further details: species or system Wistar rats. The method, then: Male healthy Wistar rats weighing 200-250 g were used in all experiments. The rats were housed, fed, and treated in accordance with the universally accepted guidelines for animal experimentation. Prior to the investigations, the animals were kept for one week under standard environmental conditions. Throughout the experimentation period, the rats were maintained in single cages and had access to standard pelleted diet and water ad libitum. Food was withdrawn 18 h before the experiments. All experiments involving rats were done in accordance with the worldwide accepted ethical guidelines for animal experimentation and previously approved by the Ethics Committee for Animal Experimentation of the University of […]á (Protocol number 067/2014-CEUA-UEM). Rats were divided into 9 groups (n = 4 rats per group). To group I (positive control) commercial corn starch (1 g per kg body weight) was given intragastrically. Group II (negative control) received only tap water. […] Fasting blood glucose levels were determined before the administration of starch and amylase inhibitors (0 time). […] Blood glucose from cut tail tips was determined using Accu-Chek® Active Glucose Meter. […] The areas were determined with the corresponding data in Figures 6(a) and 6(b) using the numerical integration procedures of the Scientist Software from MicroMath Scientific Software (Salt Lake City, UT). […]

With `C[C@H]1O[C@H](O[C@H]2[C@H](O)[C@@H](O)[C@@H](O[C@H]3[C@H](O)[C@@H](O)C(O)O[C@@H]3CO)O[C@@H]2CO)[C@H](O)[C@@H](O)[C@@H]1N[C@H]1C=C(CO)[C@@H](O)[C@H](O)[C@H]1O` (some centres unmarked) [acarbose], the “inhibitory potency compared with the tannins” value in assay [1] is “much better inhibitor of the pancreatic α-amylase than the tannins”. Also, the “effect on glycemic levels after starch administration” value in assay [2] is “diminished the increase in blood glucose concentration”.
